Drawing on patent US4927919A, “Chartreusin derivatives and salts thereof” (Ishihara Sangyo Kaisha, Ltd., priority 1985, dated 1990), this text covers LD50 and response vs control in vivo for 22 compounds.

Read-outs that look alike come from different tables or passages of the source. Where only a bound is given, the exact number is not on record here.

The nature of data set [1]: Acute toxicity (LD50, single intravenous administration). Details: species or system day mice. The note with it: mouse, in vivo, mice, single i.v. The text has this: In Table 15 are shown acute toxicity values (LD50, mg/kg) in day mice in the case of intravenously administering (once) each of the compounds of this invention in the form of preparations shown in the Preparation Examples shown in Table 16.

The subject of another data set is P-388 leukemia cells. The data set can be described thus: Antitumor activity against P-388 leukemia cells (i.p. implanted, i.v. drug). The note with it: Mus musculus, P388, iv, 720 h, read-out: T/C of MST; for response vs control in vivo at 20 mg/kg/day: dose b': 20 mg/kg/d × 2 (days 1, 5); for response vs control in vivo at 40 mg/kg/day: dose c': 40 mg/kg/d × 2 (days 1, 5); for response vs control in vivo at 80 mg/kg: dose f: 80 mg/kg/d × 3 (days 1, 5, 9). The class given is in vivo, BDF1 mice. The method, then:
BDF1 mice were implanted intraperitoneally with P-388 leukemia cells at a rate of 1×10^6 cells/mouse, and each drug to be tested was administered intravenously on the first, fifth and ninth days, or on the first and fifth days after the implantation. […] The T/C (%) was calculated based on the following equation: [formula]
The drugs tested were as follows: solutions prepared by dissolving each of compound Nos. 34, 36 and 43 to 46 in physiological saline; suspension or solutions prepared by dissolving each of compound Nos. 35, 38 and 49 to 55 in dimethylacetamide, followed by adding thereto a small amount of a surface active agent (e.g., Tween-80) and then physiological saline; and suspension or solutions prepared by mixing each of the other compounds and a small amount of a surface active agent (e.g., Tween-80), followed by adding thereto physiological saline.

Where [2] appears, read: i.v., dose c: 40 mg/kg/d × 3 (days 1, 5, 9), 30-day observation.
[3] abbreviates: i.v., dose b: 20 mg/kg/d × 3 (days 1, 5, 9), 30-day observation.

For `COC1C(O)C(C)OC(OC2C(Oc3cccc4c(OC(=O)c5ccc[nH]5)c5c(=O)oc6ccc(C)c7c(=O)oc(c34)c5c67)OC(C)C3OC(c4ccccc4)OC32)C1O` (centres unmarked) [Compound 1], the LD50 in data set [1] (Preparation Example 1) was not below 40 mg/kg. Moreover, in the data set with P-388 leukemia cells (i.v., 30-day observation), the response vs control in vivo at 20 mg/kg/day was 154% and the response vs control in vivo at 40 mg/kg/day is 188%.

As for `COC1C(O)C(C)OC(OC2C(Oc3cccc4c(OC(=O)C5CCCN5C(=O)OCc5ccccc5)c5c(=O)oc6ccc(C)c7c(=O)oc(c34)c5c67)OC(C)C3OC(C)(C)OC32)C1O` (centres unmarked) [Compound 3, 6-O-(N-carbobenzyloxy-prolyl)-3',4'-O-isopropylidene-chartreusin], the LD50 in data set [1] (Preparation Example 3) is not below 160 mg/kg. Also, the response vs control in vivo at 40 mg/kg in the data set on P-388 leukemia cells (setting [2]) is 139%. Further, the response vs control in vivo at 80 mg/kg with P-388 leukemia cells (i.v., 30-day observation) stood at 195%.

With `COC1C(O)C(C)OC(OC2C(Oc3cccc4c(OC(=O)C5CCCN5C(=O)CNC(=O)CNC(=O)OCc5ccccc5)c5c(=O)oc6ccc(C)c7c(=O)oc(c34)c5c67)OC(C)C3OC(c4ccccc4)OC32)C1O` (centres unmarked) [Compound 4], the LD50 in data set [1] (Preparation Example 2) was not below 20 mg/kg. Also, the response vs control in vivo at 20 mg/kg in the data set with P-388 leukemia cells (setting [3]) came out at 138%.

With `COC1C(O)C(C)OC(OC2C(Oc3cccc4c(OC(=O)c5ccco5)c5c(=O)oc6ccc(C)c7c(=O)oc(c34)c5c67)OC(C)C3OC(C)(C)OC32)C1O` (centres unmarked) [Compound 5], in data set [1] (Preparation Example 4), the LD50 was not below 80 mg/kg. Further, in the data set on P-388 leukemia cells (i.v., 30-day observation), the response vs control in vivo at 80 mg/kg stood at 217%.

Regarding `COC1C(O)C(C)OC(OC2C(Oc3cccc4c(OC(=O)c5ccoc5)c5c(=O)oc6ccc(C)c7c(=O)oc(c34)c5c67)OC(C)C3OC(C)(C)OC32)C1O` (centres unmarked) [Compound 7], the LD50 in data set [1] (Preparation Example 3) was not below 80 mg/kg. For the same compound, the response vs control in vivo at 40 mg/kg in the data set on P-388 leukemia cells (setting [2]) was determined as 149%. The response vs control in vivo at 80 mg/kg in the data set with P-388 leukemia cells (i.v., 30-day observation) came to 194%.

Consider `COC1C(O)C(C)OC(OC2C(Oc3cccc4c(OC(=O)c5ccc(Br)o5)c5c(=O)oc6ccc(C)c7c(=O)oc(c34)c5c67)OC(C)C3OC(C)(C)OC32)C1O` (centres unmarked) [Compound 8, 6-O-{2-(5-bromofuryl)-carbonyl}-3',4'-O-isopropylidene-chartreusin], for which the LD50 in data set [1] (Preparation Example 3) is not below 80 mg/kg. In addition, in the data set on P-388 leukemia cells (i.v., 30-day observation), the response vs control in vivo at 80 mg/kg is 178%.

For `COC1C(O)C(C)OC(OC2C(Oc3cccc4c(OC(=O)C=Cc5ccco5)c5c(=O)oc6ccc(C)c7c(=O)oc(c34)c5c67)OC(C)C3OC(C)(C)OC32)C1O` (centres unmarked) [Compound 9], the LD50 in data set [1] (Preparation Example 3) is not below 80 mg/kg. The response vs control in vivo at 80 mg/kg in the data set on P-388 leukemia cells (i.v., 30-day observation) was determined as 194%.

`COC1C(O)C(C)OC(OC2C(Oc3cccc4c(OC(=O)c5ccc(C)s5)c5c(=O)oc6ccc(C)c7c(=O)oc(c34)c5c67)OC(C)C3OC(C)(C)OC32)C1O` (centres unmarked) [Compound 12] registered an LD50 in data set [1] (Preparation Example 3) not below 80 mg/kg. In addition, the response vs control in vivo at 80 mg/kg in the data set with P-388 leukemia cells (i.v., 30-day observation) amounted to 194%.

In data set [1] (Preparation Example 3), `COC1C(O)C(C)OC(OC2C(Oc3cccc4c(OC(=O)Cc5cccs5)c5c(=O)oc6ccc(C)c7c(=O)oc(c34)c5c67)OC(C)C3OC(C)(C)OC32)C1O` (centres unmarked) [Compound 13] returned an LD50 not below 80 mg/kg. In addition, in the data set with P-388 leukemia cells (setting [2]), the response vs control in vivo at 40 mg/kg came to 134%. The response vs control in vivo at 80 mg/kg with P-388 leukemia cells (i.v., 30-day observation) amounted to 182%.

Compound `COC1C(O)C(C)OC(OC2C(Oc3cccc4c(OC(=O)CCCCC5CCSS5)c5c(=O)oc6ccc(C)c7c(=O)oc(c34)c5c67)OC(C)C3OC(c4ccccc4)OC32)C1O` (centres unmarked) [Compound 15] showed an LD50 in data set [1] (Preparation Example 2) not below 40 mg/kg. In the data set on P-388 leukemia cells (setting [3]), the response vs control in vivo at 20 mg/kg turned out to be 153%. Besides, in the data set on P-388 leukemia cells (setting [2]), the response vs control in vivo at 40 mg/kg stood at 201%.

Turning to `COC1C(O)C(C)OC(OC2C(Oc3cccc4c(OC(=O)C=Cc5c[nH]cn5)c5c(=O)oc6ccc(C)c7c(=O)oc(c34)c5c67)OC(C)C3OC(c4ccccc4)OC32)C1O` (centres unmarked) [Compound 16], in data set [1] (Preparation Example 2), the LD50 is not below 40 mg/kg. For the same compound, the response vs control in vivo at 40 mg/kg in the data set on P-388 leukemia cells (setting [2]) amounted to 148%.

On to `COC1C(O)C(C)OC(OC2C(Oc3cccc4c(OC(=O)c5ccc6[nH]ccc6c5)c5c(=O)oc6ccc(C)c7c(=O)oc(c34)c5c67)OC(C)C3OC(c4ccccc4)OC32)C1O` (centres unmarked) [Compound 18], for which, in data set [1] (Preparation Example 2), the LD50 was not below 40 mg/kg. Moreover, in the data set with P-388 leukemia cells (setting [3]), the response vs control in vivo at 20 mg/kg was 167%. Moreover, the response vs control in vivo at 40 mg/kg in the data set with P-388 leukemia cells (setting [2]) came out at 242%.

For `COc1ccc2[nH]c(C(=O)Oc3c4cccc(OC5OC(C)C6OC(c7ccccc7)OC6C5OC5OC(C)C(O)C(OC)C5O)c4c4oc(=O)c5c(C)ccc6oc(=O)c3c4c65)cc2c1` (centres unmarked) [Compound 19, 6-O-{2-(5-methoxyindolyl)-carbonyl}-3',4'-O-benzylidene-chartreusin], in data set [1] (Preparation Example 2), the LD50 was not below 40 mg/kg. Besides, in the data set on P-388 leukemia cells (setting [3]), the response vs control in vivo at 20 mg/kg was determined as 131%. Also, the response vs control in vivo at 40 mg/kg with P-388 leukemia cells (setting [2]) was 165%.

`COC1C(O)C(C)OC(OC2C(Oc3cccc4c(OC(=O)Cc5c[nH]c6ccccc56)c5c(=O)oc6ccc(C)c7c(=O)oc(c34)c5c67)OC(C)C3OC(c4ccccc4)OC32)C1O` (centres unmarked) [Compound 20] gave an LD50 in data set [1] (Preparation Example 2) not below 40 mg/kg. Besides, in the data set with P-388 leukemia cells (setting [3]), the response vs control in vivo at 20 mg/kg came to 148%. Also, in the data set on P-388 leukemia cells (setting [2]), the response vs control in vivo at 40 mg/kg stood at 286%.

Turning to `COC1C(O)C(C)OC(OC2C(Oc3cccc4c(OC(=O)C=Cc5ccc6c(c5)OCO6)c5c(=O)oc6ccc(C)c7c(=O)oc(c34)c5c67)OC(C)C3OC(c4ccccc4)OC32)C1O` (centres unmarked) [Compound 21], in data set [1] (Preparation Example 2), the LD50 was not below 40 mg/kg. For the same compound, the response vs control in vivo at 20 mg/kg in the data set with P-388 leukemia cells (setting [3]) was 131%. For the same compound, in the data set with P-388 leukemia cells (setting [2]), the response vs control in vivo at 40 mg/kg worked out at 176%.

In data set [1] (Preparation Example 2), `COC1C(O)C(C)OC(OC2C(Oc3cccc4c(OC(=O)CCc5ccc6c(c5)OCO6)c5c(=O)oc6ccc(C)c7c(=O)oc(c34)c5c67)OC(C)C3OC(c4ccccc4)OC32)C1O` (centres unmarked) [Compound 22] returned an LD50 not below 40 mg/kg. For the same compound, the response vs control in vivo at 20 mg/kg in the data set with P-388 leukemia cells (setting [3]) amounted to 142%. For the same compound, the response vs control in vivo at 40 mg/kg in the data set on P-388 leukemia cells (setting [2]) was determined as 222%.

In data set [1] (Preparation Example 3), `COC1C(O)C(C)OC(OC2C(Oc3cccc4c(OC(=O)C5CCN(C(=O)C(F)(F)F)CC5)c5c(=O)oc6ccc(C)c7c(=O)oc(c34)c5c67)OC(C)C3OC(C)(C)OC32)C1O` (centres unmarked) [Compound 23] displayed an LD50 not below 40 mg/kg. In addition, the response vs control in vivo at 40 mg/kg in the data set on P-388 leukemia cells (setting [2]) is 127%.

Take `COC1C(O)C(C)OC(OC2C(Oc3cccc4c(OC(=O)C5CCCN(C)C5)c5c(=O)oc6ccc(C)c7c(=O)oc(c34)c5c67)OC(C)C3OC(c4ccccc4)OC32)C1O` (centres unmarked) [Compound 24]: in data set [1] (Preparation Example 2), the LD50 is not below 40 mg/kg. In the data set on P-388 leukemia cells (i.v., 30-day observation), the response vs control in vivo at 20 mg/kg/day amounted to 152% and the response vs control in vivo at 40 mg/kg/day was 186%.

For `COC1C(O)C(C)OC(OC2C(Oc3cccc4c(OC(=O)C5CC(OC(C)=O)CC(C)(C)O5)c5c(=O)oc6ccc(C)c7c(=O)oc(c34)c5c67)OC(C)C3OC(c4ccccc4)OC32)C1O` (centres unmarked) [Compound 26], the LD50 in data set [1] (Preparation Example 2) was not below 20 mg/kg.

With `COC1C(O)C(C)OC(OC2C(Oc3cccc4c(OC(=O)c5ccc6ccccc6n5)c5c(=O)oc6ccc(C)c7c(=O)oc(c34)c5c67)OC(C)C3OC(C)(C)OC32)C1O` (centres unmarked) [Compound 27], the LD50 in data set [1] (Preparation Example 5) was not below 80 mg/kg. Besides, the response vs control in vivo at 40 mg/kg with P-388 leukemia cells (setting [2]) was determined as 142%.

As for `COC1C(O)C(C)OC(OC2C(Oc3cccc4c(OC(=O)c5cc(-c6ccccc6)nc6ccccc56)c5c(=O)oc6ccc(C)c7c(=O)oc(c34)c5c67)OC(C)C3OC(c4ccccc4)OC32)C1O` (centres unmarked) [Compound 28], the LD50 in data set [1] (Preparation Example 1) is not below 20 mg/kg. Further, in the data set with P-388 leukemia cells (setting [3]), the response vs control in vivo at 20 mg/kg stood at 197%. For the same compound, the response vs control in vivo at 80 mg/kg in the data set with P-388 leukemia cells (i.v., 30-day observation) turned out to be 192%.

Regarding `COC1C(O)C(C)OC(OC2C(Oc3cccc4c(OC(=O)Cc5ccc6c(c5)OCO6)c5c(=O)oc6ccc(C)c7c(=O)oc(c34)c5c67)OC(C)C3OC(c4ccccc4)OC32)C1O` (centres unmarked) [Compound 29], the median lethal dose (LD50) in data set [1] (Preparation Example 2) was not below 40 mg/kg. In the data set with P-388 leukemia cells, the response vs control in vivo at 20 mg/kg worked out at 201% and the response vs control in vivo at 40 mg/kg is 255%.

For orientation: LD50 means the dose at which mortality reaches 50%. A low value points to greater toxicity.
